Literature values as cited in patent US10052384B2, “Liquid antiseptic compositions containing iodine and a sugar and/or sugar alcohol” (3M INNOVATIVE PROPERTIES COMPANY, priority 2007, dated 2018).

Details: 25° C.

For `II` [elemental iodine], the Solubility in water is given as 0.03 wt-%.
